# Data taken from patent US20090028795A1, “NOD1 as an Anti-Tumor Agent” (priority 2005, published 2009).
# How the values were obtained:
# Assay type in all cases: cell-based, human
# MCF-7 Nod2 cells [1] = test: Apoptosis (PI, flow cytometry) in MCF-7 cells over-expressing Nod2; details: 20 ug/ml plus CHX, 48 h
# Method: (§1) In FIG. 5A, MCF-7 Blasto, MCF-7 Nod1 and MCF-7 Nod2 were treated with the NOD1 ligand γTriDAP or the Nod2 ligand muramyl dipeptide (MDP)(20 ug/ml each) in the presence or absence of CHX for 48 h. Cells were then incubated with PI and apoptotic cell death was measured by flow cytometry. […] In FIG. 5B, expression of NOD1 and NOD2 was confirmed by Western blot analysis using anti-Myc antibodies for detection of the recombinant proteins. […] MCF-7 Blasto, MCF-7 Nod1 and MCF-7 Nod2 cells were stimulated with γTriDAP or MDP in the presence or absence of CHX (0.5 ug/ml) for 24 h. Cell supernatants were then harvested and assayed for IL-8 secretion.
# Cell viability assays. Propidium iodide exclusion assay: Cells were stimulated as indicated for 2 days. […] The extent of cell death was analyzed with a FACSCalibur flow cytometer (Becton Dickinson, Mountain View, Calif.). […] Cells were fixed in 4% paraformaldehyde and examined by fluorescence microscopy.
# (§2) Experiments were also performed to ascertain whether activation of Nod2 by its specific activator, muramyl dipeptide (MDP), would initiate apoptosis in parental MCF-7 cells or in MCF-7 cells over-expressing Nod2 (MCF-7 Nod2). Thus, γTriDAP or MDP were added to each of these lines and apoptosis (FIG. 5A) and IL-8 production (FIG. 5C) were measured. […]
# MCF-7 Nod2 cells [2] = test: IL-8 secretion (ELISA) in MCF-7 Nod2 cells; details: 24 h
# Method: as §1
# IL-8 ELISA. Concentrations of IL-8 in the culture supernatants of transfected HeLa cells were measured by ELISA using 96-well Immunlon plates (Dynatech Laboratories, Chantilly, Va.). ELISA was performed using the mAb MAB208 for capture and a biotinylated polyclonal rabbit anti-human IL-8 Ab (R&D Systems, Minneapolis, Minn.) followed by streptavidin HRP for detection.
# as §2
# [3] = tested on: MCF-7 C20 cells with Nod2; test: Apoptosis in MCF-7 C20 cells complemented with Nod2; details: MCF-7 C20 complemented with Nod2 (data not shown)
# [4] = tested on: MCF-7 cells expressing wild type RIP2, RIP2 KD or RIP2ΔCARD; test: Apoptosis (PI, flow cytometry) in MCF-7 cells stably expressing RIP2 constructs; details: 20 μg/ml, CHX 3 μg/ml, 48 hr
# Method: FIG. 13A-D illustrate that RIP2 is an important component of the Nod1 apoptotic pathway. […] MCF-7 cells were stably transfected with Myc-Nod1, Myc-RIP2 (wild type), Myc-RIP2 KD, and Myc-RIP2 ΔCARD. Test cells were then treated with γTriDAP, αTriDAP and MDP (20 μg/ml each) in the presence or absence of CHX (3 μg/ml) for 48 hr, while control cells were not treated with these agents. Cells were then incubated with propidium iodide (PI) and apoptotic cell death was measured by flow cytometry. FIG. 13B illustrates the effect of TNF upon apoptosis in the same MCF-7 cell lines described in FIG. 13A. These cells lines were treated with TNF (10 ng/ml) for 18 hr and apoptotic cell death was assessed as described for FIG. 13A. TNF increased apoptosis in all the cell lines tested. […] Cells were incubated in the presence of increasing concentrations of γTriDAP or MDP in the presence of CHX for 48 hr and apoptotic cell death was assessed as described for FIG. 13A. FIG. 13D illustrates IL-8 secretion by MCF-7 Blasto, MCF-7 Nod1 and MCF-7 RIP2 wild type cells after stimulation with γTriDAP in the presence of CHX ([…]) or TNF. […]
# Cell viability assays. […] The extent of cell death was analyzed with a FACSCalibur flow cytometer (Becton Dickinson, Mountain View, Calif.). […] Cells were fixed in 4% paraformaldehyde and examined by fluorescence microscopy. […]
substance,measurement,setting,value
muramyl dipeptide [MDP],apoptosis,MCF-7 Nod2 cells [1],did not undergo increased apoptosis
same,IL-8 secretion,MCF-7 Nod2 cells [2],did result in IL-8 secretion
same,apoptosis,[3],did not result in apoptosis
same,apoptosis,[4]; cells expressing RIP2 KD,effective at inducing high levels of apoptosis
same,apoptosis,[4]; cells expressing either wild type RIP2 or RIP2ΔCARD,not
